These results are taken from BindingDB's records for doi:10.1016/s0960-894x(97)10184-6 (Cinc, 1999).

Structures are written as SMILES. pKi: −log10 of the molar value.

Assay [1] is described as follows: Tested for inhibition of substrate hydrolysis in the presence of porcine kidney esterase at a concentration of 1 uM.
A short description of assay [2]: Tested for inhibition of substrate hydrolysis in the presence of porcine kidney esterase at a concentration of 9 uM.
Assay [3] in a line: Tested for inhibition of substrate hydrolysis in the presence of porcine kidney esterase at a concentration of 45 nM.

What is called pKi is the Ki on a negative log10 scale, so that one unit is a factor of ten. As to `COC(=O)CCC(=O)N[C@@H](C)C(=O)N[C@@H](C)C(=O)N1CCC[C@H]1C(=O)N/C(=C(/OC(C)=O)C(=O)OC)C(C)C` [(E)-2-Acetoxy-3-[((S)-1-{(S)-2-[(S)-2-(3-methoxycarbonyl-propionylamino)-propionylamino]-propionyl}-pyrrolidine-2-carbonyl)-amino]-4-methyl-pent-2-enoic acid methyl ester], the pKi in assay [1] and in assay [2] was 6.89 each time.

`COC(=O)/C(OC(C)=O)=C(\NC(=O)[C@@H]1CCCN1C(=O)[C@H](C)NC(=O)[C@H](C)NC(=O)c1ccc(C(=O)NS(=O)(=O)c2ccc(Cl)cc2)cc1)C(C)C` [(E)-2-Acetoxy-3-{[(S)-1-((S)-2-{(S)-2-[4-(4-chloro-benzenesulfonylaminocarbonyl)-benzoylamino]-propionylamino}-propionyl)-pyrrolidine-2-carbonyl]-amino}-4-methyl-pent-2-enoic acid methyl ester]: the pKi in assay [3] is 7.89.
